# Target: T1, ASK1 (Homo sapiens, UniProt Q99683)
# T1 construct: purchased Thermofisher PV4011
# T1 sequence (Q99683 1-1374): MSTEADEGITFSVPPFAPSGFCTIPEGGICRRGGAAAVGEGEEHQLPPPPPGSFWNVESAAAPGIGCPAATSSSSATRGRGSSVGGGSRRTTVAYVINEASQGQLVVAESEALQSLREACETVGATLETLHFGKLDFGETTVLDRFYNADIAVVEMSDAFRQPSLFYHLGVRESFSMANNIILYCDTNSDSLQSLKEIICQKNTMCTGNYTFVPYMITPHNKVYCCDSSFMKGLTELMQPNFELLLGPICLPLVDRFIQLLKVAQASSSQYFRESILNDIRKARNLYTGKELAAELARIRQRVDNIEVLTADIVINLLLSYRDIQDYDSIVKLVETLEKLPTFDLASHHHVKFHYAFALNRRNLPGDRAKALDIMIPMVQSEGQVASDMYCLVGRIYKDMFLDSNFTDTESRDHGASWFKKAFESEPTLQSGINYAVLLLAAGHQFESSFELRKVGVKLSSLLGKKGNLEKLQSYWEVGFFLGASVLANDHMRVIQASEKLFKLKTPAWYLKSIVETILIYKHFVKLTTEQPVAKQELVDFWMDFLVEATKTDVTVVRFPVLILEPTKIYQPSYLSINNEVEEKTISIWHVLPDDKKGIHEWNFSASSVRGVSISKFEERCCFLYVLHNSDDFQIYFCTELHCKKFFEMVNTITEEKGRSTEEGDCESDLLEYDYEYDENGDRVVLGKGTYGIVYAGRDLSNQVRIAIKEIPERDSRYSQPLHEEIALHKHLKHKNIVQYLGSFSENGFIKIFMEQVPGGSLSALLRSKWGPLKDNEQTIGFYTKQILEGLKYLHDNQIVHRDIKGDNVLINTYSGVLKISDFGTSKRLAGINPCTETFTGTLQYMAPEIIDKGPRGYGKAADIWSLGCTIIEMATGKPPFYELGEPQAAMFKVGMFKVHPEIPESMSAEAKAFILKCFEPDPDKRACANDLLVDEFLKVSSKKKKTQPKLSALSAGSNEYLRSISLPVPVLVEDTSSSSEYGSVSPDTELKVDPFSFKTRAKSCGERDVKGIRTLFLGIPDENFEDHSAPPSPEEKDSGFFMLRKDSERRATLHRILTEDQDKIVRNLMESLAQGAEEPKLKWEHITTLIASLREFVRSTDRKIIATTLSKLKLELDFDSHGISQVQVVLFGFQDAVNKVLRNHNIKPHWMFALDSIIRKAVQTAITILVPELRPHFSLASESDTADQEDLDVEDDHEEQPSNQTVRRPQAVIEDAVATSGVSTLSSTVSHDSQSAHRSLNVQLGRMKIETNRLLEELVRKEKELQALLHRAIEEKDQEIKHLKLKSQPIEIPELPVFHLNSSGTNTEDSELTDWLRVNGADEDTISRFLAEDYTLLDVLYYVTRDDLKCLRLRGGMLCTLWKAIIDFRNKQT
# Test: HTRF KinEASE-STK TR-FRET kinase assay, inhibition of ASK1
# Type: biochemical
# Details: 5 nM ASK1, 1 uM STK3 peptide substrate, 100 uM ATP
# Description: ASK1 was purchased from Thermofisher (Catalogue # PV4011), ATP was purchased from Sigma (Catalogue # A7699), HTRF® KinEASE™ Assay System was obtained from Cisbio (Bedford, Mass.). ½ Area plate was purchased from Perkin Elmer (Catalogue # #6005560). HTRF® KinEASE™-STK is a generic method for measuring serine/threonine kinase activities using a time-resolved fluorescence resonance energy transfer (TR-FRET) immunoassay. The IC50 value for each compound was determined in the presence of compound (various concentration from 0 to 10 μM) and a fixed amount of ATP and peptide substrates. The test compound, 1 uM STK3 peptide substrate, and 5 nM of ASK1 kinase are incubated with kinase reaction buffer containing 50 mM HEPES pH 7.5, 0.01% BRIJ-35, 10 mM MgCl2, and 1 mM EGTA for 30 minutes. 100 uM ATP is added to start kinase reaction and incubated for 3 hours. The STK3-antibody labeled with Eu^3+-Cryptate and 125 nM streptavidin-XL665 are mixed in a single addition with stop reagents provided by the Cisbio kit used to stop the kinase reaction. Fluorescence is detected using an Envision Multilabeled 2014 reader from PerkinElmer. The Fluorescence is measured at 615 nm (Cryptate) and 665 nm (XL665) and a ratio of 665 nm/615 nm is calculated for each well. The resulting TR-FRET is proportional to the phosphorylation level. Staurosporine was used as the positive control. IC50 was determined by XLfit 5.3.
smiles,measurement,value
CC(C)n1nnnc1-c1cccc(NC(=O)c2cc3sc(N4CCCC4)nc3cc2F)n1 [Example 47],IC50,> 1 µM
